Data reported in PMC12386980, “Functional Analysis of NPC2 in Alarm Pheromone Recognition by the Red Imported Fire Ant, Solenopsis invicta (Formicidae: Solenopsis)” (Insects, 2025).

Assays:
[1] = molecular target: T1, SinvNPC2a (Solenopsis invicta, UniProt Z9QIP2HJ34); test: fluorescence competitive binding assay, 1-NPN displacement
T1 construct: recombinant from pET28a in E. coli BL21(DE3) pLysS, soluble, Ni-IDA purified

[2] = molecular target: T1, SinvNPC2a; test: as above; remark: listed apart in the source

T1 sequence (Z9QIP2HJ34 21-153 limits assumed): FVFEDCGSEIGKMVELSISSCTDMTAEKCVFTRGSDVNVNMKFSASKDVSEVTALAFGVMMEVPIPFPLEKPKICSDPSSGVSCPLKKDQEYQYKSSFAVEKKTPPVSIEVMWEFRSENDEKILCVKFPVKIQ

Question: For CCc1nc(C)cnc1C [EDMP, 2-ethyl-3,6-dimethylpyrazine], which Ki [1] is on record?
Answer: 5.09 ± 1.51 µM

Question: And the IC50 [2]?
Answer: 9.82 µM
